The source made the active and inactive calls.

This note sets out measurements from ChEMBL document CHEMBL1201862, “PubChem BioAssay data set” (2004).

The subject of experiment [1] is Streptococcus. Put plainly: GAS UMAA2166 growth inhibition – luminescence, BacTiterGlo, counter-screen for streptokinase expression inhibitor project, dose response (AID 1915).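 Further: potency for reduction of bacterial viability or growth.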 Type of experiment: functional, organism-based. For orientation: Counterscreens check selectivity or assay interference.
The test system of experiment [2] is Streptococcus sp. 'group A'. Put plainly: Streptococcus pyogenes SK(-)GAS viability under kanamycin – luminescence, BacTiterGlo, confirmation, counter-screen for streptokinase expression inhibitor project, dose response (AID 1900). It counts as functional, organism-based.
Experiment [3] has as its target Cytochrome P450 2D6 (Homo sapiens, UniProt P10635).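 Further: CYP2D6 member of a cytochrome P450 panel assay.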
Experiment [4] has as its target T1, Streptokinase A (Streptococcus pyogenes serotype M1, UniProt P10520).
T1 sequence (P10520 whole entry): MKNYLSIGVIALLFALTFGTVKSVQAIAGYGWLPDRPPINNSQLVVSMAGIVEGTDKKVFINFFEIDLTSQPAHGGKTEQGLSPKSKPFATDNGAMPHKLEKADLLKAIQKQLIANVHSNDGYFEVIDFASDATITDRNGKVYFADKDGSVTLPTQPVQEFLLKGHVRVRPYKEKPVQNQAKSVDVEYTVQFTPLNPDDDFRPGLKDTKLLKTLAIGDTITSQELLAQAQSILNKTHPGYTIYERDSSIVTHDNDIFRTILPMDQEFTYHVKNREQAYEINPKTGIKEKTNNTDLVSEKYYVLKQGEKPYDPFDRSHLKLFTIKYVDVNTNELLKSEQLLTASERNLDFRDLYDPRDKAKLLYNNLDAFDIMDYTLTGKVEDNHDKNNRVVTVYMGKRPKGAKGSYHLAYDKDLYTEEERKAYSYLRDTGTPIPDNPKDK
Put plainly: viability-normalized secreted streptokinase activity reduction – plasminogen activation absorbance, OD405, dose response (AID 1914).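 Further: secreted streptokinase activity via plasminogen activation per viability signal from cell pellet.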 Type of experiment: functional, Streptococcus pyogenes M1 GAS.

Experiment [5] concerns INS1. Put plainly: INS-1E survival protection against cytokine death – cell-based, luminescence, retest, dose response (AID 449756).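 Further: cell death triggered by IL-1 beta plus TNF-alpha plus IFN-gamma mixture; protective hits raise ATP signal compared with cytokine alone wells.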 Type of experiment: functional. The conditions noted are these: Rattus norvegicus.
Experiment [6] in a line: Luminescence Cell-Based Dose Retest to Confirm Inhibitors of Cancer Stem Cells. [Related pubchem assays (depositor defined):AID2717, AID2721]. Type of experiment: functional. The conditions noted are these: Homo sapiens.
For experiment [7], the target named is T2, Protein skinhead-1 (Caenorhabditis elegans, UniProt P34707).
T2 sequence (P34707 whole entry): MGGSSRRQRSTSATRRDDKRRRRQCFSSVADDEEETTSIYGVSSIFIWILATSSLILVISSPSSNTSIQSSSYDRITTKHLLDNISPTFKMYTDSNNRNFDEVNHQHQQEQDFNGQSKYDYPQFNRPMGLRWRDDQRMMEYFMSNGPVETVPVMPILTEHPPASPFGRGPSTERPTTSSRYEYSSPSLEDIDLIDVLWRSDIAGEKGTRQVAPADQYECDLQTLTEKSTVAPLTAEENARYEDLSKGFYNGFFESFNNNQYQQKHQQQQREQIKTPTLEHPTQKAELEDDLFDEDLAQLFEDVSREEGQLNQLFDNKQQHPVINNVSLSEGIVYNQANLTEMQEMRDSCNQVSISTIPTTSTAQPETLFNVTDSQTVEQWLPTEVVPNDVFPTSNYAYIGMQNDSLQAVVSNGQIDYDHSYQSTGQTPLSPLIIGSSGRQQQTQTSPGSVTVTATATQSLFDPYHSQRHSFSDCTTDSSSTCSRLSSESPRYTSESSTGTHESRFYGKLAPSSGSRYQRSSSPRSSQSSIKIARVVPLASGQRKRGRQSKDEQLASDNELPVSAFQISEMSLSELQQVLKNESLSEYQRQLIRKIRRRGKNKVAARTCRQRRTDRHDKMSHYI
Type of experiment: functional.

Experiment [8] is described as follows: cells. It counts as functional.
Experiment [9] addresses T3, Replicative DNA helicase DnaB (Mycobacterium tuberculosis, UniProt P9WMR3).
T3 sequence (P9WMR3 whole entry): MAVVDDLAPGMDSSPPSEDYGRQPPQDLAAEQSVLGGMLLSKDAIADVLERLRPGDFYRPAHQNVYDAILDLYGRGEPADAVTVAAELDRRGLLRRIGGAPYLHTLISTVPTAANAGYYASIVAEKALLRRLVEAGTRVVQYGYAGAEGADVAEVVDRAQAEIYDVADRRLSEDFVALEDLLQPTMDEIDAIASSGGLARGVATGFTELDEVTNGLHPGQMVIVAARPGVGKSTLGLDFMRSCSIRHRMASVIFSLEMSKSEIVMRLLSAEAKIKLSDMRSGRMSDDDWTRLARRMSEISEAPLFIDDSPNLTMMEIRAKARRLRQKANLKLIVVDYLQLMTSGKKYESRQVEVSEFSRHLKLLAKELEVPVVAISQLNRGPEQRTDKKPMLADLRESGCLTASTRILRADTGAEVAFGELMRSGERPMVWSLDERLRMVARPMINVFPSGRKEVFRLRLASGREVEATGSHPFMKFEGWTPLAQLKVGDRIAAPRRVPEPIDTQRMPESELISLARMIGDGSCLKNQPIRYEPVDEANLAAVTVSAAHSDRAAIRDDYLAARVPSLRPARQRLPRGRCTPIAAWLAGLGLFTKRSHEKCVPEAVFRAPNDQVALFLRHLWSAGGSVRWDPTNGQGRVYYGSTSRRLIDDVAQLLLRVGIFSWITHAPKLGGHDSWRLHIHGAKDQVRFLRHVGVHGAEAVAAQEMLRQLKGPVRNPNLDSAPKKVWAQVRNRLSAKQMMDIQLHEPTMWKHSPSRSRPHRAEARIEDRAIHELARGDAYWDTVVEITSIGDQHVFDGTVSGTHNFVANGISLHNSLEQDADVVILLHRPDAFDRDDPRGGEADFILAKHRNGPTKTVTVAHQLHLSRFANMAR
The experiment in a line: DnaB intein splicing inhibitors, dose response, biochemical, cell-free fluorescence (AID 449749). It counts as functional.

The target of experiment [10] is T4, Protein RecA (Mycobacterium tuberculosis, UniProt P9WHJ3).
T4 sequence (P9WHJ3 whole entry): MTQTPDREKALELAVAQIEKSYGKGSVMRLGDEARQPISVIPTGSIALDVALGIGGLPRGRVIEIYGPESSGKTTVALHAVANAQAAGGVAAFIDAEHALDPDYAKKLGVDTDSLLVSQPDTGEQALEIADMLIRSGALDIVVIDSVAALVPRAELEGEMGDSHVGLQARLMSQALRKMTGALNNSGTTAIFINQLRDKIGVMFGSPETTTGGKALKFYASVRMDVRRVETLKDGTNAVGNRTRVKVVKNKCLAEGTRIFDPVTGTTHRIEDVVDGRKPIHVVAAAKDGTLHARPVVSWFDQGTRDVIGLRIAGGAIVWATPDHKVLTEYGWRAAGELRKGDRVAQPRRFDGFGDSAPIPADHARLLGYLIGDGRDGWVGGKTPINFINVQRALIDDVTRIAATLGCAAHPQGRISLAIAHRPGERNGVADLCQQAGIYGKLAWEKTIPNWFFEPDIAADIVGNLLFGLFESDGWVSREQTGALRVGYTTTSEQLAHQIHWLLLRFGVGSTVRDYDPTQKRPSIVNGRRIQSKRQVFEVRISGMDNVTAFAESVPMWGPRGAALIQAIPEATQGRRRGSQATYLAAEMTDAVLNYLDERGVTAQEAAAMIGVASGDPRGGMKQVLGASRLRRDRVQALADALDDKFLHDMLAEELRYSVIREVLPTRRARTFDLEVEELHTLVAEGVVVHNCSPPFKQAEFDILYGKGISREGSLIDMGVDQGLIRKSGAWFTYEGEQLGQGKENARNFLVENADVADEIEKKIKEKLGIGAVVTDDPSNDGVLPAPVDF
Put plainly: Fluorescence Cell-Free Homogeneous Dose Retest to Identify Inhibitors of RecA-Intein Splicing Activity. [Related pubchem assays (depositor defined):AID2097, AID2223, AID489010, AID492950]. Type of experiment: functional.

Sequence of Cytochrome P450 2D6 (P10635 whole entry): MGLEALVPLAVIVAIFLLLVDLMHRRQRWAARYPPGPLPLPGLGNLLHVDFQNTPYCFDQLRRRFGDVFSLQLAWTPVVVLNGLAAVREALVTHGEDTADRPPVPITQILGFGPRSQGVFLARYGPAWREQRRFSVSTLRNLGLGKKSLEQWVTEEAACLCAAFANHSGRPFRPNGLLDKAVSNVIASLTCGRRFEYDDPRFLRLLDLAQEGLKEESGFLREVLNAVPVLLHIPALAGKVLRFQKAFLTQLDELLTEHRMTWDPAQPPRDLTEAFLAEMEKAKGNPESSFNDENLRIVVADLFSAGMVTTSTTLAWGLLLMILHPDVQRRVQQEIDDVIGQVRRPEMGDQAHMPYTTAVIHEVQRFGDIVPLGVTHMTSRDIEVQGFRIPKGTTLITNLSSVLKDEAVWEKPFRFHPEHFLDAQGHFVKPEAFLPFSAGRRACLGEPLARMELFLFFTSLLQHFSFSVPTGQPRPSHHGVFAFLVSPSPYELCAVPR

As to `O=C(NC(=S)N(Cc1ccccc1)Cc1ccccc1)c1ccccc1F`, the figures for the EC50 in experiment [1], in experiment [2] and in [4] were 9.16 µM (active), 1.08 µM (active) and > 150 µM (not active), respectively. In addition, the AC50 in [3] was 0.2 µM (inconclusive).
Take `O=C(NCc1ccccc1)C1=C[C@@H](c2csc3ccccc23)C[C@@H](OCc2ccc(CO)cc2)O1`: the AC50 in [5] was 2.88 µM (active).
`COC(=O)c1cc(NC(=O)c2cc(-c3ccccc3Cl)oc2C(F)(F)F)ccc1N1CCOCC1`: the half-maximal activity concentration (AC50) in experiment [6] is 4.57 µM (active).
In the case of `C[C@@H]1O[C@@H](O[C@H]2C[C@@H](O)[C@]3(CO)[C@H]4[C@H](O)C[C@]5(C)[C@@H](C6=CC(=O)OC6)CC[C@]5(O)[C@@H]4CC[C@]3(O)C2)[C@H](O)[C@H](O)[C@H]1O`, in experiment [6], the AC50 is < 0.16 µM (active).
For `Fc1ccc(Cn2cccc2C2=NC(c3ccccc3)CO2)cc1` (centres undefined), the values for the EC50 in [1], in experiment [2] and in experiment [4] were > 150 µM (not active), 16 µM (active) and 23.8 µM (active), respectively.
Regarding `CN(CC(=O)Nc1cccc(F)c1)C(=O)CC1CC2CCC1C2` (centres undefined), the IC50 in [7] was > 100 µM (inactive).
As for `COC(=O)COc1ccc(-c2ccccc2)cc1C=O`, in experiment [8], the half-inhibitory concentration (IC50) is 12.1 µM (active).
In the case of `CCn1c(C)c(C)c2cc(C(=O)N3CCN(c4ccccc4)CC3)ccc21`, in [7], the IC50 is > 100 µM (inactive).
Turning to `CSc1cccc(-c2nnc(NC(=O)c3cccc(N4C(=O)CCC4=O)c3)o2)c1`, the EC50 in experiment [1] was 131 µM (active); in [2] it was 4.88 µM (active); in [4] it was > 150 µM (not active).
Consider `COc1ccc(-c2cccc([C@H]3[C@@H]4C=CCC[C@@]4(C)C(=O)N3Cc3ccccc3)c2)cc1`, for which the AC50 in [6] is 5.36 µM (active).
For the compound `CCOC(=O)c1cnn(-c2nc(-c3ccccc3F)cs2)c1C(F)(F)F`, the EC50 was 23.8 µM (active) in experiment [1], 17.9 µM (active) in experiment [2] and 34.3 µM (active) in [4].
Take `COC(=O)c1c2c(nc3ccccc13)CCC2`: the IC50 in experiment [7] was > 100 µM (inactive).
For the compound `Cc1cc(C(=O)c2ccc(Cl)cc2)c(NC(=O)CCl)s1`, the AC50 in experiment [9] was 24.4 µM (active). Also, in [10], the EC50 was 0.481 µM (active).
On to `COC(=O)c1cc(-c2cccc(OC)c2)c2c(=O)[nH]c(=O)n(C)c2n1`, for which the EC50 in experiment [1] was 11.7 µM (active); in [2], 6.29 µM (active); in experiment [4] it was > 150 µM (not active).
Turning to `CC(C)Nc1nc(NC(C)C)nc(N(C)N)n1`, the EC50 in [1] was > 150 µM (not active); in [2], 32.9 µM (active); in experiment [4] it was > 150 µM (not active).
For `CC(=O)Nc1ccc(SCC(=O)c2cc(C)n(-c3ccccc3)c2C)cc1`, the AC50 in [6] is 6.41 µM (active).
On to `COc1ccc(NC(=O)c2cc3ccccc3o2)cc1`, for which the IC50 in [8] was > 50 µM (active).
On to `CC(=O)c1c(C)[nH]c(C(=O)CN2CCN(S(=O)(=O)c3ccccc3)CC2)c1C`, for which, in experiment [5], the AC50 was > 260 µM (inactive).
Regarding `Cc1ccccc1C(=O)Nc1scc(-c2ccc(Br)cc2)c1C(=O)O`, the EC50 in [1] was 7.36 µM (active); in experiment [2], 3.46 µM (active); in experiment [4], > 150 µM (not active).
In the case of `CCCOc1ccc(OCCSc2ncccn2)cc1`, the IC50 in experiment [7] was 82.8 µM (inactive).
For `Cc1ccc(OCCSc2nc(NC(C)C)nc(NC(C)C)n2)cc1`, the results for the EC50 in experiment [1], in experiment [2] and in experiment [4] were 34.2 µM (active), 6.42 µM (active) and 13.9 µM (active), respectively. For the same compound, the AC50 in experiment [6] is 1.11 µM (active).
With `CCc1ccccc1NC(=O)NNS(=O)(=O)c1cc(C)ccc1C`, the figures for the EC50 in experiment [1], in [2] and in experiment [4] were > 150 µM (not active), > 150 µM (not active) and 4.21 µM (active), respectively.
As for `CC1=NN(c2ccccc2)C(=O)/C1=C\c1cn(C)c2ccccc12`, the AC50 in experiment [9] is 17.7 µM (active). The EC50 in [10] was 6.5 µM (active).
For `COc1ccc(C(=O)c2ccc(OC)cc2OC)cc1`, in experiment [6], the AC50 was 13.6 µM (active).
For `c1nc2n(n1)C1=C(CCCC1)C1(CCCCC1)N2`, the IC50 in experiment [8] was 10.1 µM (active).
As for `C=CC[C@@H](CC(=O)N(CCO)Cc1ccccc1)C(=O)N[C@H](COC(=O)[C@@H](CC=C)CC(=O)OC(C)(C)C)c1ccccc1`, the AC50 in experiment [5] was > 260 µM (inactive).
Regarding `O=C(C=Cc1ccco1)c1ccc2ccccc2c1`, the IC50 in experiment [7] is 9.38 µM (active).
`O=C(OCn1nnc2ccccc2c1=O)c1ccc(Br)o1`: the IC50 in experiment [8] was 18.6 µM (active).
For `CC(C)c1ccc(NC(=O)C(c2ccccc2)N(C)C(=O)CCc2c[nH]c3ccccc23)cc1` (centres undefined), the half-maximal activity concentration (AC50) in [6] is 4 µM (active).
As for `Cc1ccc(-c2nnn(CC(=O)NCC3COCCO3)n2)o1` (centres undefined), in experiment [7], the IC50 is > 100 µM (inactive).
Still for that read-out and setting: to `O=[N+]([O-])c1ccc(Nc2nccc(Cl)n2)cc1` belongs > 100 µM (inactive).
For the compound `Cc1ccn2c(NC3CCCCC3)c(-c3cccc(SC4CCCCC4)c3)nc2c1`, in experiment [6], the AC50 was 2.65 µM (active).

The term EC50 denotes the concentration that produces a half-maximal response. By AC50 is commonly meant the concentration giving half of the maximal activity seen. By IC50 is commonly meant the concentration that gives 50% inhibition.
